Results published in patent US10688193B2, “PH-sensitive linkers for delivering a therapeutic agent” (GNT BIOTECH & MEDICALS CORPORATION, priority 2015, dated 2020).

Key:
[1] = Cytotoxicity assay of Au/LKs/Dox complexes (MTS, 72 hours); assay type: cell-based; details: human, H184B5F5/M10 mammary epithelial cells; M10, 72 hrs; read-out: IC50 value for complex cytotoxicity
Protocol: (§1) We examined the cytotoxicity of Au/LKs/Dox complexes and the IC50 value was calculated. […] The CellTiter 96® AQueous One Solution Cell Proliferation Assay (MTS) reagent was purchased from Promega (Madison, Wis., USA) and the assay was performed according to the manufacturer's instructions. Absorbance was measured at 490 nm using a microplate reader (Bio-tek, Powerwave X340, Winooski, Vt., USA).

MDA-MB-453 = test: as above; assay type: cell-based; details: Homo sapiens; MDA-MB-453, 72 hrs; read-out: IC50 value for complex cytotoxicity
Protocol: as §1

MDA-MB-231 breast tumors = test: MDA-MB-231 breast tumor xenograft efficacy study; assay type: in vivo, BALB/c-nu/nu mice
Excerpt: FIG. 6 (A) to (D) show the treatment of MDA-MB-231 breast tumors. (A) Net animal weight change (g) during the treatment. From the data, doxorubicin and Au/LKI-1/Dox was cause the weight loss over 20% and 3% in nude mice (N=3), respectively. […] (B) The inhibition of MDA-MD-231 breast tumor growth (N=3): Dox>Au/LKI-1/Dox>Au/PEG=PBS. (C) TEM images of MDA-MB-231 breast tumor cells treated with Au/LKI-1/Dox complex was easy determined the Au/LKI-1/Dox complex in the tumor in xenograft model. (D) Immunohistochemistry of tumor specimens. Breast tumor specimens were taken from the mice, embedded in paraffin and stained with hematoxylineosin.
BALB/c-nu/nu mice were purchased from BioLASCO Taiwan. Eight week old male mice were injected unilaterally with 1.0×10^7 MDA-MB-231 breast tumor cells in 200 μL of 50:50 Matrigel/Leibovitz's (L-15) into the dorsum by subcutaneous injection. (1) Vehicle-PBS (negative control), (2) Doxorubicin (positive control), 5 mg/kg, (3) Au/PEG, (4) Au/LKI-1/Dox complex, 5 mg/kg of Dox. Treatment was ongoing until clinical symptoms necessitated sacrifice. Mice were weighed a minimum of two times/weekly and were monitored tumor size until clinical symptoms necessitated sacrifice (see FIG. 6A, 6B). TEM images of MDA-MB-231 breast tumor cells treated with Au/LKI-1/Dox complex in xenograft model. […] (see FIG. 6C) H&E stain of MDA-MB-231 tumor cells treated with Au/LKI-1/Dox complex in xenograft model. (see FIG. 6D)

in vitro [2] = details: human, MCF7 breast adenocarcinoma cells
Excerpt: (§2) After took photos, cells were counted by using hemocytometer.

in vitro [3] = details: human, MDA-MB-231 breast adenocarcinoma cells
Excerpt: as §2

in vitro [4] = details: human, H184B5F5/M10 mammary epithelial cells
Excerpt: as §2

in vitro [5] = details: human, MDA-MB-453 breast adenocarcinoma cells
Excerpt: as §2

TNFα = TNFα (Homo sapiens, UniProt P01375); test: Blocking of TNFα-induced MCF-7 cell apoptosis (MTS); assay type: cell-based; details: for Relative cell survival %: TNFα 12.5 ng/mL, MCF-7, 72 hours
TNFα, sequence (P01375 77-233 limits assumed, species assumed): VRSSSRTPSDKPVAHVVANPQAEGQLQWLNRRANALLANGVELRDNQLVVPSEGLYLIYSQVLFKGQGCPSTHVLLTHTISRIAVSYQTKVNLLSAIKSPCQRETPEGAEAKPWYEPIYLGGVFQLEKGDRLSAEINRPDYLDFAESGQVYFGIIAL
Protocol: We further examined Au/LKI-1/ETA complex by binding with secondary antibody conjugated with 1-5 nm AuNPs. In TEM images of Au/LKI-1/ETA complex, binding of 1-5 nm gold-labeled secondary anti-human IgG antibodies to ETA located on the AuNP surface was observed (FIG. 4C). We further investigated the TNFα blocking ability of ETA and Au/LKI-1/ETA. MCF-7 cells (5×10^5) were treated with the mixtures of 12.5 ng/mL TNFα and 62.5, 125, 250, 500 ng/mL ETA or Au/LKI-1/ETA complex for 2 hours, respectively. The treated cells were incubated at 37° C. for 72 hours and then the cell numbers were counted by MTS [(3-(4,5-dimethylthiazol-2-yl)-5-(3-carboxymethoxyphenyl)-2-(4-sulfophenyl)-2H-tetrazolium)] assay. […] ETA and Au/LKI-1/ETA complex were used to test their abilities in blocking TNFα induced MCF-7 cell apoptosis, Table 4.

| IC50 at 72 h (in vitro [2]) [µM] | IC50 at 72 h (in vitro [3]) [µM] | IC50 at 72 h (in vitro [4]) [µM] | IC50 at 72 h (in vitro [5]) [µM] | Molecule | other results |
| --- | --- | --- | --- | --- | --- |
|  |  |  |  | COc1cccc2c1C(=O)c1c(O)c3c(c(O)c1C2=O)C[C@@](O)(C(=O)CO)C[C@@H]3O[C@H]1C[C@H](N)[C@H](O)[C@H](C)O1 [Dox, doxorubicin] | IC50 at 72 h [1]: 0.14 ± 0.034 µM; IC50 (MDA-MB-453): 0.65 ± 0.072 µM; inhibition of MDA-MB-231 breast tumor growth (rank order) (MDA-MB-231 breast tumors; N=3, 5 mg/kg of Dox): Dox>Au/LKI-1/Dox>Au/PEG=PBS; weight loss during the treatment (MDA-MB-231 breast tumors; nude mice (N=3), 5 mg/kg of Dox): over 20%; necrosis in tumor specimens (hematoxylin-eosin) (MDA-MB-231 breast tumors; xenograft tumors): more necrosis |
| 692 ± 51.9 | 529 ± 52.1 | 584 ± 62.7 | 299 ± 23 | NNC(=O)OCCOCCNC(=O)CCCCC1CCSS1 (centres unmarked) [Linker I-1] |  |
| 730 ± 36.7 | 536 ± 21.6 | 686 ± 105 | 432 ± 96.6 | NNC(=O)OCCNC(=O)CCCCC1CCSS1 (centres unmarked) [Linker I-2] |  |
| 538 ± 39.6 | 454 ± 142 | 555 ± 33.5 | 333 ± 9.8 | NNC(=O)OCCOCCOCCNC(=O)CCCCC1CCSS1 (centres unmarked) [Linker I-3] |  |
| 569 ± 14.1 | 576 ± 81.9 | 560 ± 45.1 | 342 ± 11 | NNC(=O)OCCOCCOCCOCCNC(=O)CCCCC1CCSS1 (centres unmarked) [Linker I-4] |  |
| 419 ± 23.8 | 484 ± 64.6 | 569 ± 54.7 | 460 ± 87.9 | NNC(=O)OCCOCCOCCOCCOCCOCCNC(=O)CCCCC1CCSS1 (centres unmarked) [Linker I-5] |  |
| 501 | 474 | 500 | > 800 | NNC(=O)OCCNC(=O)CNC(=O)CCCCC1CCSS1 (centres unmarked) [Linker II-1] |  |
| > 800 | > 800 | > 800 | > 800 | NNC(=O)OCCNC(=O)CNC(=O)CNC(=O)CCCCC1CCSS1 (centres unmarked) [Linker II-2] |  |
| > 800 | 559 ± 23.3 | > 800 | 128 ± 15.1 | NNC(=O)OCCOCCNC(=O)CCCCCS [Linker SHI-1] |  |
| > 800 | 533 ± 63.9 | > 800 | 130 ± 13.4 | NNC(=O)OCCOCCOCCOCCNC(=O)CCCCCS [Linker SHI-4] |  |
|  |  |  |  | Etanercept | TNFα blocking ability (TNFα; MCF-7 cells): TNFα blocking ability was observed; Relative cell survival % (TNFα; dose 62.5 ng/mL): 36.7 ± 1.4%; Relative cell survival % (TNFα; dose 125 ng/mL): 68.5 ± 2.3%; Relative cell survival % (TNFα; dose 250 ng/mL): 82.1 ± 6.5%; Relative cell survival % (TNFα; dose 500 ng/mL): 103.3 ± 0.9% |

| Molecule | IC50 at 72 h (in vitro [2]) [µM] | IC50 at 72 h (in vitro [3]) [µM] | IC50 at 72 h (in vitro [4]) [µM] | IC50 at 72 h (in vitro [5]) [µM] | other results |
| --- | --- | --- | --- | --- | --- |
| NNC(=O)OCCNC(=O)CNC(=O)CNC(=O)CNC(=O)CCCCC1CCSS1 (centres unmarked) [Linker II-3] | > 800 | 428 ± 116 | 585 ± 132 | > 800 |  |
